Where two headings read alike, the source gives them in different places. One block for each compound: values may come before it.
Assays:
[1] = cited from earlier work
[2] = preparation and stability of crystal suspensions of microcrystalline rapamycin / everolimus in solutions of different tri-O-acylglycerols (Examples 2, 3); settings: ethyl acetate/heptane solution; standing and temperature elevation
Excerpt: In the first step, solutions of tri-O-acylglycerols were first prepared in a solvent mixture. Subsequently, the solutions were combined with microcrystals of rapamycin and everolimus to investigate which tri-O-acylglycerols could be used to obtain stable crystal suspensions. The composition of the solvents and solvent mixture varied depending on the active agent used. The solutions and solvent mixtures prepared in the example apply to rapamycin (SIR) and everolimus (EVR). For the preparation of the solutions, an ethyl acetate/heptane solvent mixture was used here as an example.
To prepare the solutions, 770 mg of the respective tri-O-acylglycerol and optionally 150 mg BHT were dissolved in 14 g ethyl acetate (15.6 mL). Then, 57.4 g of n-heptane (84.4 mL) was added. Subsequently, homogenization and filtration were performed. The total volume of the solvent mixture is 100 mL.
To a precisely weighed amount of dry microcrystals of the previously prepared limus active agent, a defined amount of the solutions containing tri-O-acylglycerol and optionally antioxidant is carefully added. It was investigated whether the microcrystals of the limus active agent are not soluble in the solutions and whether suspensions are formed.
To check whether crystal suspension can be prepared, to each 200 mg of rapamycin in the form of microcrystals or 200 mg of everolimus in the form of microcrystals were carefully added 10 mL of one of the solutions 1a) to 1t) at room temperature. Three mixtures of 10 mL of solution for each solution were prepared. After combining, it was tested whether the microcrystals of limus active agents dissolved directly in the solutions. For solutions where there was no immediate dissolution of the microcrystals of the limus active agents, the suspensions of the solutions without antioxidant were allowed to stand for a period of 100 h and tested again to see if the microcrystals of the limus active agents dissolved.
Three mixtures of 10 mL of solution for each solution were prepared. After combining, it was tested whether the microcrystals of limus active agents dissolved directly in these solutions. For solutions where there was no immediate dissolution of the microcrystals of the limus active agents, the suspensions of the solutions without antioxidant were allowed to stand for a period of 100 hours and tested again to see if the microcrystals of the limus active agents dissolved.

[3] = cited from earlier work; remark: listed apart in the source
[4] = crystal suspensions of microcrystalline everolimus in different solvent mixtures (Example 6); type: physicochemical; parameters: key: +++: good; +/−: average; −−−: poor; settings: 770 mg trioctanoylglycerol per 100 mL
Method: To prepare the solutions, 770 mg of trioctanoylglycerol was dissolved in the polar solvent. Then the nonpolar solvent was added. It was then homogenized and filtered.
To test whether crystal suspensions could be prepared, 10 mL of each of the solutions was carefully added to 200 mg of everolimus in the form of microcrystals at room temperature. After combining, it was tested whether stable crystal suspensions were obtained.

[5] = non-solvents, rounded values (Table 2)
[6] = nonpolar organic solvents (Table 8)
[7] = nonpolar organic solvents, rounded values (Table 4)
[8] = polar organic solvents (Table 7)
[9] = polar organic solvents, rounded values (Table 6)

SMILES: CCCC(C)(C)C [2,2-Dimethylpentane]
logKOW [1, 5]: 3.8

SMILES: CCCCCCCCC [Nonan]
logKOW [1, 5]: 5.7
logKOW [1, 6]: 5.65

SMILES: CC1CCCC1 [Methylcyclopentane]
logKOW [1, 5]: 3.4

SMILES: C1COCCO1 [1,4-Dioxane]
log KOW [1]: about −0.4

SMILES: CC(C)Cc1ccccc1 [iso-butylbenzene]
logKOW [1, 7]: 4.1

SMILES: CCc1ccccc1 [Ethylbenzene]
logKOW [1, 7]: 3.2

SMILES: CCC(C)C(C)C (stereo not shown) [2,3-Dimethylpentane]
logKOW [1, 5]: 3.8

SMILES: CCCCCCCCCC(=O)OCC(COC(=O)CCCCCCCCC)OC(=O)CCCCCCCCC [Tridecanoylglycerol, tridecanoylglycerol]
stability of the crystal suspension of microcrystalline everolimus and rapamycin with the tri-O-acylglycerol [2]: remained stable even after 100 h and under temperature elevation

SMILES: CCCC(C)C [2-Methylpentane]
logKOW [1, 5]: 3.6

SMILES: CCCC(C)=O [Solution 2-Pentanone, 2-Pentanone]
logKOW [1, 8]: 0.84
logKOW [1, 9]: +0.9

SMILES: CCCCCCCCCCC(=O)OCC(COC(=O)CCCCCCCCCC)OC(=O)CCCCCCCCCC [Triundecanoylglycerol, 1,3-bis(undecanoyloxy)propan-2-yl-undecanoate]
solubility in water [3]: practically insoluble in water
stability of the crystal suspension of microcrystalline everolimus and rapamycin with the tri-O-acylglycerol [2]: remained stable after 24-48 hours and under temperature elevation

SMILES: CC(C)CC(C)(C)C [2,2,4-Trimethylpentane]
logKOW [1, 5]: 4.1

SMILES: CCCCCCCC [Octane]
logKOW [1, 5]: 5.2
logKOW [1, 6]: 5.15

SMILES: CCCCCCCCCC [Decan]
logKOW [1, 5]: 6.3
logKOW [1, 6]: 6.25

SMILES: CCCCCCCC(=O)OCC(COC(=O)CCCCCCC)OC(=O)CCCCCCC [Trioctanoylglycerol, trioctanoylglycerol]
solubility in water [3]: practically insoluble in water
stability of the crystal suspension of microcrystalline everolimus and rapamycin with the tri-O-acylglycerol [2]: remained stable even after 100 h and under temperature elevation

SMILES: CC(C)(C)C1CCCCC1 [tert-butylcyclohexane]
logKOW [1, 5]: 4.0

SMILES: C1CCCC1 [Cyclopentane]
logKOW [1, 5]: 3.0
logKOW [1, 6]: 3.00

SMILES: CCC(C)c1ccccc1 (stereo not shown) [2-Phenylbutane]
logKOW [1, 7]: 3.4

SMILES: OCC(O)CO [Glycerin]
logKOW [1, 9]: −1.8

SMILES: Clc1ccccc1Cl [o-Dichlorobenzene]
logKOW [1, 7]: 3.4

SMILES: COC(C)=O [Methyl acetate]
logKOW [1, 9]: +0.2

SMILES: CCC(=O)O [Propionic acid]
logKOW [1, 8]: 0.32

SMILES: CC(C)c1ccccc1 [Cumol]
logKOW [1, 7]: 3.4

SMILES: O [Water]
logKOW ([1]; polar organic solvents, rounded orientation values (Table 5)): approx. −1.4

SMILES: FC(F)(F)C(F)(F)C(F)(F)C(F)(F)C(F)(F)C(F)(F)F [Tetradecafluorohexane]
logKOW [1, 7]: 5.8

SMILES: CCCCC(C)C [2-Methylhexane]
logKOW [1, 5]: 3.7

SMILES: CCCCCCC [Heptane]
logKOW [1, 5]: 4.5
logKOW [1, 6]: 4.50

SMILES: CCC(C)(C)C [2,2-Dimethylbutane]
logKOW [1, 5]: 3.8

SMILES: C1CCOC1 [Tetrahydrofuran (THF), Tetrahydrofuran]
logKOW [1, 8]: 0.46
logKOW [1, 9]: +0.5

SMILES: CCCOC(C)=O [n-Propyl acetate]
logKOW [1, 9]: +1.4

SMILES: CCOC(C)=O [Ethyl acetate]
logKOW [1, 8]: 0.73
logKOW [1, 9]: +0.7

SMILES: COc1ccccc1 [Anisol]
logKOW [1, 7]: 2.1

SMILES: Clc1ccccc1 [Chlorobenzene]
log KOW [1]: about 2.9
logKOW [1, 7]: 2.9

SMILES: CCOc1ccccc1 [Ethoxybenzene]
logKOW [1, 7]: 2.5

SMILES: CC(C)Cc1ccccc1 [2-Methyl-1-phenylpropane]
logKOW [1, 7]: 3.4

SMILES: CN1CCCC1=O [N-methylpyrrolidone]
logKOW [1, 9]: −0.5

Crystal suspension ([4]; Acetone/Cyclohexane 10:90 (v/v)): +++
Crystal suspension ([4]; Acetone/Cyclohexane 30:70 (v/v)): +/−
Crystal suspension ([4]; Acetone/Cyclohexane 40:60 (v/v)): +/−
Crystal suspension ([4]; Acetone/Cyclohexane 50:50 (v/v)): −−−
Crystal suspension ([4]; Acetone/Cyclohexane 60:40 (v/v)): −−−
Crystal suspension ([4]; Acetone/Heptane 10:90 (v/v)): +++
Crystal suspension ([4]; Acetone/Heptane 30:70 (v/v)): +/−
Crystal suspension ([4]; Acetone/Heptane 40:60 (v/v)): +/−
Crystal suspension ([4]; Acetone/Heptane 50:50 (v/v)): −−−
Crystal suspension ([4]; Acetone/Heptane 60:40 (v/v)): −−−
Crystal suspension ([4]; Acetone/Hexane 10:90 (v/v)): +++
Crystal suspension ([4]; Acetone/Hexane 30:70 (v/v)): +/−
Crystal suspension ([4]; Acetone/Hexane 40:60 (v/v)): +/−
Crystal suspension ([4]; Acetone/Hexane 50:50 (v/v)): −−−
Crystal suspension ([4]; Acetone/Hexane 60:40 (v/v)): −−−
Crystal suspension ([4]; Ethanol/Cyclohexane 10:90 (v/v)): +++
Crystal suspension ([4]; Ethanol/Cyclohexane 40:60 (v/v)): +/−
Crystal suspension ([4]; Ethanol/Cyclohexane 50:50 (v/v)): −−−
Crystal suspension ([4]; Ethanol/Cyclohexane 60:40 (v/v)): −−−
Crystal suspension ([4]; Ethanol/Heptane 10:90 (v/v)): +++
Crystal suspension ([4]; Ethanol/Heptane 40:60 (v/v)): +/−
Crystal suspension ([4]; Ethanol/Heptane 50:50 (v/v)): −−−
Crystal suspension ([4]; Ethanol/Heptane 60:40 (v/v)): −−−
Crystal suspension ([4]; Ethanol/Hexane 10:90 (v/v)): +++
Crystal suspension ([4]; Ethanol/Hexane 40:60 (v/v)): +/−
Crystal suspension ([4]; Ethanol/Hexane 50:50 (v/v)): −−−
Crystal suspension ([4]; Ethanol/Hexane 60:40 (v/v)): −−−
Crystal suspension ([4]; Ethyl acetate/Cyclohexane 10:90 (v/v)): +++
Crystal suspension ([4]; Ethyl acetate/Cyclohexane 30:70 (v/v)): +++
Crystal suspension ([4]; Ethyl acetate/Cyclohexane 40:60 (v/v)): +++
Crystal suspension ([4]; Ethyl acetate/Cyclohexane 50:50 (v/v)): +/−
Crystal suspension ([4]; Ethyl acetate/Cyclohexane 60:40 (v/v)): +/−
Crystal suspension ([4]; Ethyl acetate/Heptane 10:90 (v/v)): +++
Crystal suspension ([4]; Ethyl acetate/Heptane 30:70 (v/v)): +++
Crystal suspension ([4]; Ethyl acetate/Heptane 40:60 (v/v)): +++
Crystal suspension ([4]; Ethyl acetate/Heptane 50:50 (v/v)): +/−
Crystal suspension ([4]; Ethyl acetate/Heptane 60:40 (v/v)): +/−
Crystal suspension ([4]; Ethyl acetate/Hexane 10:90 (v/v)): +++
Crystal suspension ([4]; Ethyl acetate/Hexane 30:70 (v/v)): +++
Crystal suspension ([4]; Ethyl acetate/Hexane 40:60 (v/v)): +++
Crystal suspension ([4]; Ethyl acetate/Hexane 50:50 (v/v)): +/−
Crystal suspension ([4]; Ethyl acetate/Hexane 60:40 (v/v)): +/−
Crystal suspension ([4]; iso-propanol/Cyclohexane 10:90 (v/v)): +++
Crystal suspension ([4]; iso-propanol/Cyclohexane 30:70 (v/v)): +/−
Crystal suspension ([4]; iso-propanol/Cyclohexane 40:60 (v/v)): +/−
Crystal suspension ([4]; iso-propanol/Cyclohexane 50:50 (v/v)): −−−
Crystal suspension ([4]; iso-propanol/Cyclohexane 60:40 (v/v)): −−−
Crystal suspension ([4]; iso-propanol/Heptane 10:90 (v/v)): +++
Crystal suspension ([4]; iso-propanol/Heptane 30:70 (v/v)): +/−
Crystal suspension ([4]; iso-propanol/Heptane 40:60 (v/v)): +/−
Crystal suspension ([4]; iso-propanol/Heptane 50:50 (v/v)): −−−
Crystal suspension ([4]; iso-propanol/Heptane 60:40 (v/v)): −−−
Crystal suspension ([4]; iso-propanol/Hexane 10:90 (v/v)): +++
Crystal suspension ([4]; iso-propanol/Hexane 30:70 (v/v)): +/−
Crystal suspension ([4]; iso-propanol/Hexane 40:60 (v/v)): +/−
Crystal suspension ([4]; iso-propanol/Hexane 50:50 (v/v)): −−−
Crystal suspension ([4]; iso-propanol/Hexane 60:40 (v/v)): −−−
SMILES: CO[C@H]1C[C@@H]2CC[C@@H](C)[C@@](O)(O2)C(=O)C(=O)N2CCCC[C@H]2C(=O)O[C@H]([C@H](C)C[C@@H]2CC[C@@H](OCCO)[C@H](OC)C2)CC(=O)[C@H](C)/C=C(\C)[C@@H](O)[C@@H](OC)C(=O)[C@H](C)C[C@H](C)/C=C/C=C/C=C/1C [Everolimus, 40-O-(2-hydroxyethyl)rapamycin]

SMILES: C1CCCCCC1 [Cycloheptane]
logKOW [1, 5]: 4

SMILES: C1CCCCCCCCC1 [Cyclodecane]
logKOW [1, 5]: 5.5

SMILES: CCC(C)C [Isopentane]
logKOW [1, 5]: 3.2

SMILES: C1CCCCCCCC1 [Cyclononan]
logKOW [1, 5]: 5.1

SMILES: CCCOCCC [Dipropyl ether]
logKOW [1, 9]: +2.0
